Results: PMC9814400 (Communications Chemistry, 2022)
Read-outs that look alike come from different tables or passages of the source.

Tests used:
[1] = target: T1, p97-ND1 (Homo sapiens, UniProt P55072); test: STD-NMR with p97-ND1 in the presence of 500 µM ADP; assay type: binding; parameters: key to mean STD-effect (ND1) / maximum STD-effect (ND1): STD effect = Idiff/Ioff × 100 (%); details: for maximum STD-effect (ND1) / mean STD-effect (ND1): Supplementary Table 3; for STD (maximum STD signal measured with p97-ND1): aromatic resonances, 428 µM fragment, 30 µM protein, 500 µM ADP
T1 construct: His6 (TEV protease-cleavable) (N); made in house
Experimental: The NMR measurements were carried out with the biologically more relevant p97-ND1 construct in the presence of 500 µM ADP to block the nucleotide binding site. The STD effect was calculated by dividing the intensity of the difference spectrum by the intensity of the off-spectrum (Idiff/ Ioff × 100) for each signal. For further analysis only resonances in the aromatic region of the ^1H NMR spectrum of the individual ligand were considered. A mean STD effect of each fragment interacting with p97-ND1 was calculated using the sum of the individual STD effects divided by the number of signals considered. Furthermore, the maximum STD effect of each compound was determined. […] Similar results were obtained in the previously reported fragment screen with p97[26]. An overview of the STD effects is shown in Supplementary Fig. 4.
All Saturation-Transfer-Difference (STD)[32] measurements were performed on a Bruker Avance III 400 MHz spectrometer (Karlsruhe, Germany) operating at 400.13 MHz with a PABBI 1H/D-BB Z-GRD inverse probe at 300 K adjusted with a BSVT (Bruker) temperature control unit. Temperature calibration was carried out with 99.8% CD3OD (282–330 K). The stddiffesgp.3 pulse program from the Bruker pulseprogram library was used for data acquisition. The suppression of the HDO signal (4.703 ppm) was achieved by the excitation sculpting method. The saturation frequency for the on- and off-resonances was set to −400 Hz and −16,000 Hz, respectively. The saturation time was 3 s with a relaxation delay D1 of 4 s.
The protein stock solutions were transferred to a deuterated buffer containing 35 mM potassium phosphate and 25 mM NaCl in D2O at a pD of 7.5 using 0.5 mL Centricon devices (Merck Millipore) with a MWCO of 30 kDa by washing and centrifuging several times at 10,000 × g and 4 °C. Buffer-exchanged protein was adjusted to a concentration of 30 µM with NMR buffer. The respective fragment concentration was 428 µM with a final DMSO-d6 fraction of 5% (v/v). All measurements were performed in the presence of 500 µM ADP (in case of the ND1 domain) and 5 mM MgCl2. All data were analyzed using TopSpin 4.0.8 (Bruker Corporation, Billerica, MA, USA).

[2] = target: T2, N-domain of p97 (Homo sapiens, UniProt P55072); test: STD-NMR build-up measurements with the isolated N-domain; assay type: binding
T2 construct: additional STD measurements with the isolated N-domain were carried out; made in house
Experimental: To obtain additional information about the putative binding mode of the selected fragments, full STD-NMR build-up curves were measured for the fragments TROLL2, TROLL7, TROLL8 and TROLL12 and the initial rates of STD build-up (STD0) were calculated. […] As expected, the saturation effects were higher for the ND1 construct compared to the isolated N-domain due to the stronger nuclear Overhauser effect (NOE) of the much larger protein. Because of water suppression, not all hydrogens of the selected fragments were experimentally accessible. For the remaining hydrogen atoms, different STD0 values were determined, indicating a defined orientation of the fragments upon binding to p97 (Supplementary Fig. 7). For TROLL2, TROLL7 and TROLL12 a clear dominance in the saturation of the protons at the hydrophobic aromatic parts of the molecules was visible.
For binding epitope mapping of selected fragments, the initial growth rates approach was used as described. For determination of the initial rate of STD build up (STD0) the STD intensities for seven saturation times (0.5, 0.75, 1.0, 1.5, 2.0, 3.0, 5.0 s) were measured for the ND1 as well as for the isolated N-domain and fitted by an exponential equation using R. The recycle delay (d1) was set to 5 s. For each fragment also a negative control without protein was measured with a saturation time of 5.0 s. Theoretical STD0 values on the basis of the obtained X-ray crystal structure as well as for representative mixed-solvent MD poses were calculated using the Complete Relaxation and Conformational Exchange Matrix Analysis of Saturation Transfer (CORCEMA-ST) software version 3.8[72] and ShiftX version 1.1[73]. Predicted and experimental STD-data were evaluated using the NOE R-factor (see Supplementary Methods in the Supporting Information).

[3] = target: T3, p97-N (Homo sapiens, UniProt P55072); test: BLI dose-response binding to the isolated N-domain of p97; details: for Kd: BLI steady state, 1:1 Langmuir model, errors from the fitting model; for LLEAT: based on KD for p97-N, heavy atom count and clogP; for ScoreBLI: based on sensorgrams from measurements with p97-N, about 1.0 or above = 1:1 binder; for LE: ligand efficiency based on KD for p97-N
T3 construct: Constructs of p97-N (aa 21-199, N-terminal 3 C protease-cleavable His6-tag); His6 (3C protease-cleavable) (N); made in house
Experimental: The selected 42 fragments of the screen with the N-domain were tested in a dose-dependent manner using concentrations from 1000.0 µM to 31.3 µM in 1:1 dilution steps. […] The sensorgrams of these fragments were fitted with a 1:1 Langmuir model to estimate their affinities and analyzed with respect to the following parameters: (i) The presence of a stationary phase; (ii) curve shapes according to either a homogeneous (1:1) or a heterogeneous (2:1) binding model, and (iii) justification of a 1:1 binding model via the obtained empirical constants kobs of the association phase. Based on these analyses, a ScoreBLI was calculated (for details see Supplementary Methods in the Supporting Information). The calculated ScoreBLI should be close to or above 1.0 for ligands that can be described with a 1:1 model, whereas ligands showing unspecific binding yield values << 1.0. Based on the ScoreBLI, we divided the fragments into a low-scoring (<0.70) and a high-scoring (≥0.70) group.
(§1) Protein constructs for BLI measurements were enzymatically biotinylated using BirA[28]. Biotinylated p97 was loaded on Super Streptavidin Biosensors (SSA) obtained from Sartorius as follows. SSA-sensors were equilibrated in PBS-buffer, loaded with a protein solution containing 50 µg/mL (p97-ND1) or 100 µg/mL (p97-N) protein, blocked with biocytin and washed in PBS buffer. Reference SSA-sensors were set up by blocking them with a 10 µg/mL biocytin solution for 5 min[27]. The SSA-sensors were loaded to a shift of up to 7 nm with p97-ND1 and 10 nm with p97-N, respectively.
(§2) Screening plates were prepared by adding 10 µL of a 10 mM DMSO stock solution of library compound to 190 µL of PBS buffer (containing 0.05% TWEEN 20, 1 mM DTT and 5 mM MgCl2 [only for p97-ND1]) in 96 well plates (Greiner). The final DMSO concentration was 5% (v/v). All BLI measurements were performed on an Octet RED96e (Sartorius) device.
(§3) Selected fragments of the initial screenings were confirmed by dose-response-titrations using six concentrations ranging from 1000 to 31.3 µM in a 1:1 dilution series. Every concentration was measured twice. The assay settings were as follows: baseline measurement 15 s; association time 120 s and dissociation time 180 s. The double referenced data were further analyzed in Origin Pro to estimate the affinity by fitting the signals of the steady states to a 1:1 Langmuir model. For the fitting all measured data points (n = 2) were considered.
Definition of the quality score “ScoreBLI”
For selecting fragments for further analysis, the ScoreBLI was def ined as : […]
SSSSSSSSSSBBBBBB = rrmmmmmmmm 1:1rrmmmmmmmm 2:12 SSkkkkkkkk rmean 1:12 is the mean of the r2 coefficients of t he r egr es s ions of all association phases measured f or a given f ragment. The data were f itted with a 1:1 binding model:
RRPP = RRPPee ?1 − SS −(kkkkkkkk PP ) ? with RRPP the shift at the time t, k obs the empirical rate constant and RRPPee the shift at equilibrium.
In analogy, the rmean 2:12 was def ined by f itting with a 2:1 binding model:
RRPP = RRPPee 1 ?1 − SS −(kkkkkkkk1 PP) ? + RRPPee 2 ?1 − SS −(kkkkkkkk2 PP) ? A ligand f ollowing a 1:1 model would result in a good rmean2 f or both functions, whereas f or a lig and which is better described with a 2:1 model the rmean2 f or a 1:1 model would decrease, resulting in an overall decreased value.
In case of a 1:1 model the empirical rate constant k obs is proportional to the concentration of […]
kkkkkkkk = kkPP [LL ] + kkdd with ka t he association rate constant and kd t he dissociation rate constant. Theref ore, all observed empirical rate constants of a ligand were subjected to a linear regression model, which yielded the value r kobs2 .
A Langmuir model was used to es t im at e the affinities of the fragments. The use of this model requires that a chemical equilibrium is reached. To analyze whether this condition was met, the responses of the last 10 seconds of each association phase were f itted with a linear model. […]

[4] = target: T1, p97-ND1; test: BLI dose-response binding to the p97-ND1 construct
Excerpt: As starting point for the initial screen, a BLI binding assay was developed with a p97-ND1 construct (amino acids 2-481) to allow validation with adenosine diphosphate (ADP) as a positive control. The p97-ND1 construct was enzymatically biotinylated via an Avi-Tag and Escherichia coli biotin ligase[28] and loaded to high response (>5 nm) on Super Streptavidin Biosensors (SSA), yielding a homogeneous sensor surface. […] The kinetic analysis of the sensorgrams indicated a clear 1:1 binding model for ADP. […] Another surprising result were the high responses upon ADP-binding with shifts over 0.7 nm. These high values indicate that the BLI signal is not only dependent on the molar weight as in SPR but may also reflect conformational changes induced in p97 upon ADP binding.
For 12 fragments, a dose-dependent binding was observed and a 1:1 Langmuir model could be applied to obtain the respective KD value. The determined KD^(p97-ND1) values mostly agreed well with those previously determined for the respective fragments with the isolated N-domain. […] TROLL1 and VIK40 were therefore not considered further.
as §1, §2, §3

[5] = target: p97 ND1 fragment; details: read-out: reported affinity of ADP, cited from earlier work
[6] = BLI steady state, 1:1 Langmuir model, errors from the fitting model, read-out: KD p97-ND1

T1 sequence (P55072 2-481): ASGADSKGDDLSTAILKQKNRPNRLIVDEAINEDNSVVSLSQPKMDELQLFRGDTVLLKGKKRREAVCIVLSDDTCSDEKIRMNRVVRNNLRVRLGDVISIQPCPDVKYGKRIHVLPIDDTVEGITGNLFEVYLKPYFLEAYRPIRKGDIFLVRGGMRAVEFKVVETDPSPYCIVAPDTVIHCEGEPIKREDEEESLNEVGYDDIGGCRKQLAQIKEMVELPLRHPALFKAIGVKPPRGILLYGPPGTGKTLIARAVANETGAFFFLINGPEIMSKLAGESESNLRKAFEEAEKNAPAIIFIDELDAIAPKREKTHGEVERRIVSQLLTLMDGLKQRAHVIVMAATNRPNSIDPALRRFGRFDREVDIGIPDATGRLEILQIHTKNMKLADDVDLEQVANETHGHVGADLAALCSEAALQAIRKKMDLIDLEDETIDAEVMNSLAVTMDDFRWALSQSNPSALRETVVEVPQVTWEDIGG
T3 sequence (P55072 21-199): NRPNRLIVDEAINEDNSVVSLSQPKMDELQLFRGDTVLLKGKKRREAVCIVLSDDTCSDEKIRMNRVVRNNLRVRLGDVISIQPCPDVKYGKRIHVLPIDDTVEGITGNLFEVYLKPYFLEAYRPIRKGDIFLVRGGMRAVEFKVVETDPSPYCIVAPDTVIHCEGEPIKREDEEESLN
T2 sequence (P55072 21-199 limits assumed): as the sequence (P55072 21-199) above

| SMILES | maximum STD-effect (ND1) [1] | mean STD-effect (ND1) [1] | STD (maximum STD signal measured with p97-ND1) [1] [%] | Kd [3] [µM] | LLEAT [3] | ScoreBLI [3] | LE [3] | Kd [4, 6] [µM] | binding to the N-domain by STD-NMR [2] | Kd ([5]; ND1 fragment spanning amino acids 1-458) [µM] | Kd ([5]; ND1 fragment spanning amino acids 1-480) [µM] | Kd ([4]; Langmuir model, steady state measurements of a dilution series, read-out: KD of ADP to p97-ND1 (steady state)) [µM] | Kd ([4]; global exponential regression, 1:1 binding model, read-out: affinity of ADP to p97-ND1 (kinetic analysis)) [µM] | ScoreBLI ([4]; score evaluated with binding data for ADP) |
| --- | --- | --- | --- | --- | --- | --- | --- | --- | --- | --- | --- | --- | --- | --- |
| Cc1oc(CN)nc1-c1ccccc1 [TROLL12] | 47.9 | 44.5 | 47.9 | 354 ± 17 | 0.34 | 0.84 | 0.33 | – | confirmed the binding | – | – | – | – | – |
| NCC(O)c1ccc(Br)cc1 (stereo not shown) [TROLL2] | 37.7 | 36.0 | 37.7 | 56 ± 46 | 0.47 | 0.83 | 0.52 | 321 ± 67 | confirmed the binding | – | – | – | – | – |
| NCC(O)c1ccc(Cl)cc1 (stereo not shown) [TROLL7] | 37.3 | 34.5 | 37.3 | – | 0.42 | 0.91 | 0.45 | – | confirmed the binding | – | – | – | – | – |
| Nc1ncnc2c1ncn2[C@@H]1O[C@H](COP(=O)(O)OP(=O)(O)O)[C@@H](O)[C@H]1O [ADP, adenosine diphosphate, reference compound] | – | – | – | – | – | – | – | – | – | 0.2 | 0.098 | 0.2 ± 0.014 | 0.239 ± 0.009 | 1.02 |
| Cc1ccc(-c2cc(N)n[nH]2)o1 [TROLL8] | 41.0 | 33.1 | 41.0 | 245 ± 43 | 0.40 | 0.91 | 0.41 | 598 ± 214 | confirmed the binding | – | – | – | – | – |
| O=C(O)Cc1cc2ccccc2[nH]1 [TROLL6] | 72.5 | 66.5 | 72.5 | 160 ± 22 | 0.30 | 0.75 | 0.39 | 243 ± 16 | – | – | – | – | – | – |

The next lines start with results.

| maximum STD-effect (ND1) [1] | mean STD-effect (ND1) [1] | STD (maximum STD signal measured with p97-ND1) [1] [%] | Kd [3] [µM] | LLEAT [3] | ScoreBLI [3] | LE [3] | Kd [4, 6] [µM] | SMILES | binding to the N-domain by STD-NMR [2] | Kd ([5]; ND1 fragment spanning amino acids 1-458) [µM] | Kd ([5]; ND1 fragment spanning amino acids 1-480) [µM] | Kd ([4]; Langmuir model, steady state measurements of a dilution series, read-out: KD of ADP to p97-ND1 (steady state)) [µM] | Kd ([4]; global exponential regression, 1:1 binding model, read-out: affinity of ADP to p97-ND1 (kinetic analysis)) [µM] | ScoreBLI ([4]; score evaluated with binding data for ADP) |
| --- | --- | --- | --- | --- | --- | --- | --- | --- | --- | --- | --- | --- | --- | --- |
| 18.3 | 18.3 | 18.3 | 147 ± 32 | 0.27 | 0.94 | 0.30 | 192 ± 92 | Nc1nc2c(s1)CN(Cc1ccccc1)CC2 [VIK20] | – | – | – | – | – | – |
| 67.4 | 55.4 | 67.4 | 409 ± 61 | 0.16 | 0.93 | 0.27 | 290 ± 33 | Cc1ccc(-c2csc3nc(CO)cn23)cc1 [TROLL14] | – | – | – | – | – | – |
| 57.4 | 54.3 | 57.4 | 625 ± 89 | 0.27 | 0.89 | 0.33 | 445 ± 223 | Nc1[nH]ncc1-c1ccc(Cl)cc1 [TROLL18] | – | – | – | – | – | – |
